Data on 16 compounds can be found in patent publication US12398132B2, “Derivatives of 4-(imidazo[1,2-a]pyridin-3-yl)-n-(pyridinyl)pyrimidin-2-amine as therapeutic agents” (AUCENTRA THERAPEUTICS PTY LTD, priority 2019, dated 2025).

One experiment deals with U937. Nature of the experiment: Proliferation assay (resazurin/MTT), U937. It counts as cell-based. Conditions: Homo sapiens, U-937, read-out: 72 h Growth inhibition GI50, U937 cells.
The next experiment concerns the target CDK4/D1 (Homo sapiens, UniProt P11802). Nature of the experiment: ADP Glo kinase assay, CDK4/D1. It counts as biochemical. Conditions: CDK4D1; compound at 1 μM (values marked *); read-out: residual enzymatic activity (%) at 1 μM*. A general note: In ADP-Glo the light output rises with the ADP produced.
A further experiment deals with CDK6/D3 (Homo sapiens, UniProt Q00534). Nature of the experiment: ADP Glo kinase assay, CDK6/D3. Format: biochemical. The conditions noted are these: CDK6D3; compound at 1 μM (values marked *); read-out: residual enzymatic activity (%) at 1 μM*.
CDK6/D3, sequence (Q00534 whole entry, species assumed): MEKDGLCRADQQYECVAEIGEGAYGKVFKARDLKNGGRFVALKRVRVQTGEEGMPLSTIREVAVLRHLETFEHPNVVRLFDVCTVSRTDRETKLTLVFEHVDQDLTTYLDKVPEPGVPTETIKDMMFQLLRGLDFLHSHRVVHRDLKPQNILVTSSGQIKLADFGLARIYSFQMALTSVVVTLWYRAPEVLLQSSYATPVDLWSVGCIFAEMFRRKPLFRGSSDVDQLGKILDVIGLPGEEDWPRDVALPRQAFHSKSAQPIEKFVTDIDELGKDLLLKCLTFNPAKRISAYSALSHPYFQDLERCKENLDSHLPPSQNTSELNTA
CDK6/D3, sequence (P30281 whole entry partner, species assumed): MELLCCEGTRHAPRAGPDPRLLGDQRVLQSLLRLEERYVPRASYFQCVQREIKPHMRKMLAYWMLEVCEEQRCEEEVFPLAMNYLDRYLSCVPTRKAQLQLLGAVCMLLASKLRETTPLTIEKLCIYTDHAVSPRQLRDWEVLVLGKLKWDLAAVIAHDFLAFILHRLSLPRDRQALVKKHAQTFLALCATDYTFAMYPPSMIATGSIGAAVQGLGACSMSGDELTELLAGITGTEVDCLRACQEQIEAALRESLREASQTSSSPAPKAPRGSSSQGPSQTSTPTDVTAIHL
In a further experiment the target is CDK1B (Homo sapiens, UniProt P06493). Conditions: 1 µM.
CDK1B, sequence (P06493 whole entry): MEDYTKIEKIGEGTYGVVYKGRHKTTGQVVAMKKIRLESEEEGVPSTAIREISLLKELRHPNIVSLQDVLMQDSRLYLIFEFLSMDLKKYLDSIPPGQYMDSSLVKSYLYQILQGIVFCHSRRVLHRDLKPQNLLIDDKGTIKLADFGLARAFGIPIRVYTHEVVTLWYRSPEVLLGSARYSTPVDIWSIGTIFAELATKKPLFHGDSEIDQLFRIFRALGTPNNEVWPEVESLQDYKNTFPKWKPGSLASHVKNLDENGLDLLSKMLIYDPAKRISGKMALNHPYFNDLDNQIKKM
CDK1B, sequence (P14635 whole entry partner): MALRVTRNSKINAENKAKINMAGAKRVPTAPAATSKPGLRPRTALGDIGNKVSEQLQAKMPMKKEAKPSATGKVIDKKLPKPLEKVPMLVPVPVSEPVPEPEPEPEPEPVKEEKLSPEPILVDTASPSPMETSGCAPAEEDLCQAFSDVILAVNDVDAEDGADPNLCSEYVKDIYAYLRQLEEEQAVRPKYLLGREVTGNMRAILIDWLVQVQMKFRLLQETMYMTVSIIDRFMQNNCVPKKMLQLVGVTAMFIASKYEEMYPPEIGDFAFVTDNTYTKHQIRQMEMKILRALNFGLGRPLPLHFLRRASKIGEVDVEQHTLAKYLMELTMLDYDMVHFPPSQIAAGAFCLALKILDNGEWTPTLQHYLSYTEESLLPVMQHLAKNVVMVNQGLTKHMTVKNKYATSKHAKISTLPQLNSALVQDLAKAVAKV
A further experiment deals with MV-4-11. Nature of the experiment: Proliferation assay (resazurin/MTT), MV-4-11. The conditions noted are these: Homo sapiens, MV4-11, read-out: 72 h Growth inhibition GI50, MV-4-11 cells. Format: cell-based.
In another experiment the target is CDK7HMAT1 (Homo sapiens, UniProt P50613). Conditions: 1 µM.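 Further: kinase activity measured with an ADP-Glo luminescent kinase assay.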
CDK7HMAT1, sequence (P50613 whole entry): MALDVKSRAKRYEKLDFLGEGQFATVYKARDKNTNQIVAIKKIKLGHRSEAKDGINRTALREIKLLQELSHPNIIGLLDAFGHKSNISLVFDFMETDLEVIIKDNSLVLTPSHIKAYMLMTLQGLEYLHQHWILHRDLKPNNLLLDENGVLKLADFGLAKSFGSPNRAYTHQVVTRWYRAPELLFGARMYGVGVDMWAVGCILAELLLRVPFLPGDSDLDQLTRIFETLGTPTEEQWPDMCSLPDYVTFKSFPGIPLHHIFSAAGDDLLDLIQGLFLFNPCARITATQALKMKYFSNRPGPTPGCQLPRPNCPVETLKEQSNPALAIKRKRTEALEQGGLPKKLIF
CDK7HMAT1, sequence (P51946 whole entry partner): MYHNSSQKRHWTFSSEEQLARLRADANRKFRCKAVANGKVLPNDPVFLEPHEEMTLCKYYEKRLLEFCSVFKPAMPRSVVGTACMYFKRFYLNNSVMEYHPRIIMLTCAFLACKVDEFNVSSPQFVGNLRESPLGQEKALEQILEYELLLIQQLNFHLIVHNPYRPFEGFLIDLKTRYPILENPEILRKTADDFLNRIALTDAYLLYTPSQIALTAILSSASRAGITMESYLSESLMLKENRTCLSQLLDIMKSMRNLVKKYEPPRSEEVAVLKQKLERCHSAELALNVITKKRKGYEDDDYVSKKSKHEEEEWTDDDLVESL
CDK7HMAT1, sequence (P51948 whole entry partner): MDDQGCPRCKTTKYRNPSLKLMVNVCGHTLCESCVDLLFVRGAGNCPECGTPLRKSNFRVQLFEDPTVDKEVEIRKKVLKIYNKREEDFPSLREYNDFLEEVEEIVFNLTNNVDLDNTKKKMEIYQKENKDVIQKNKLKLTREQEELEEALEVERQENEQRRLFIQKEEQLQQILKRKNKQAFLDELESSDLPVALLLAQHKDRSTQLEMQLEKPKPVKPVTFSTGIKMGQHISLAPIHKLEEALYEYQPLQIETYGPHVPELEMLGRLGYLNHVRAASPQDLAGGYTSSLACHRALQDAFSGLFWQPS
The next experiment has as its target CDK2E1 (Homo sapiens, UniProt P24941). Conditions: 1 µM.
The next experiment concerns the target CDK9/CyclinT1 (Homo sapiens, UniProt P50750). Nature of the experiment: ADP Glo kinase assay, CDK9/CyclinT1. It counts as biochemical. Conditions: CDK9T1; for Ki: apparent Ki calculated from Km (ATP) and IC50, read-out: CDK inhibition Ki.
In a further experiment the target is T1, FLT3(ITD) (Homo sapiens, UniProt P36888).
T1 sequence (P36888 1-993): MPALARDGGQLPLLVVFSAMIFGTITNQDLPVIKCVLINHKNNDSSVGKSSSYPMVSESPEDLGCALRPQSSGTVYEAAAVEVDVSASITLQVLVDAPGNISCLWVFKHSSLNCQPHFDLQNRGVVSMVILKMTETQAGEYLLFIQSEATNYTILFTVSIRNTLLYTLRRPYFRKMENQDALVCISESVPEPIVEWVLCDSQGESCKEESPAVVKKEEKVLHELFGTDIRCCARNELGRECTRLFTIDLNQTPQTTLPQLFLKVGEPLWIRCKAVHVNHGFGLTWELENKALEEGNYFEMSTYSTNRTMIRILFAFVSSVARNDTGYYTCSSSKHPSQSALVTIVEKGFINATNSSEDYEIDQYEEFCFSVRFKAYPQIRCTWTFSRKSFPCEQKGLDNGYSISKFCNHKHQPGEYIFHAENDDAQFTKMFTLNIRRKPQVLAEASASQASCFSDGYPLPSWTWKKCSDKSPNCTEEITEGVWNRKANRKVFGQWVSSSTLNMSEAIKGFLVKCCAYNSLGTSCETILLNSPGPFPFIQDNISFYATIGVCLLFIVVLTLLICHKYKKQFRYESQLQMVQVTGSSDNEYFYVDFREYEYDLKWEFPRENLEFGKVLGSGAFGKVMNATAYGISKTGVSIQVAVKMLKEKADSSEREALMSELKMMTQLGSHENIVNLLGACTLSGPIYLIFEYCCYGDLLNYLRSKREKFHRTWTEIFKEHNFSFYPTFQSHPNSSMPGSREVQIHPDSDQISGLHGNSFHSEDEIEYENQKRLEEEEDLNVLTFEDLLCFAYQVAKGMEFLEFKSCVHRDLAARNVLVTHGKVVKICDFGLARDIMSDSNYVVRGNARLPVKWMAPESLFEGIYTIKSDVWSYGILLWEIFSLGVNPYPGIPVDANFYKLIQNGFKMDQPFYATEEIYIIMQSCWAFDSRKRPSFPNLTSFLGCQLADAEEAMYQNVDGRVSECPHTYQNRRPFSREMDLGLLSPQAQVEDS
Nature of the experiment: ADP Glo kinase assay, FLT3(ITD). The conditions noted are these: apparent Ki calculated from Km (ATP) and IC50, read-out: FLT3 inhibition Ki. It counts as biochemical.

CDK9/CyclinT1, sequence (P50750 whole entry, species assumed): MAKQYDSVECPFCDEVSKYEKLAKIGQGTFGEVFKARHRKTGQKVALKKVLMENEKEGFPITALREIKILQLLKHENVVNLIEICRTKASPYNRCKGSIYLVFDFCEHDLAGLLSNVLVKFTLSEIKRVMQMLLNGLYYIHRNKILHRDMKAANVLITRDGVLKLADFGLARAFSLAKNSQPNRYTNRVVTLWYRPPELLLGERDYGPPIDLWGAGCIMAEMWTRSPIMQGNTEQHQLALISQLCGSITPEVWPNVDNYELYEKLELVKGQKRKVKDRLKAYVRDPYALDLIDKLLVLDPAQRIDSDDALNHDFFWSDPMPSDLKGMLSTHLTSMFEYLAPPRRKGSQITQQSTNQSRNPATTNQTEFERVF
CDK9/CyclinT1, sequence (O60563 whole entry partner, species assumed): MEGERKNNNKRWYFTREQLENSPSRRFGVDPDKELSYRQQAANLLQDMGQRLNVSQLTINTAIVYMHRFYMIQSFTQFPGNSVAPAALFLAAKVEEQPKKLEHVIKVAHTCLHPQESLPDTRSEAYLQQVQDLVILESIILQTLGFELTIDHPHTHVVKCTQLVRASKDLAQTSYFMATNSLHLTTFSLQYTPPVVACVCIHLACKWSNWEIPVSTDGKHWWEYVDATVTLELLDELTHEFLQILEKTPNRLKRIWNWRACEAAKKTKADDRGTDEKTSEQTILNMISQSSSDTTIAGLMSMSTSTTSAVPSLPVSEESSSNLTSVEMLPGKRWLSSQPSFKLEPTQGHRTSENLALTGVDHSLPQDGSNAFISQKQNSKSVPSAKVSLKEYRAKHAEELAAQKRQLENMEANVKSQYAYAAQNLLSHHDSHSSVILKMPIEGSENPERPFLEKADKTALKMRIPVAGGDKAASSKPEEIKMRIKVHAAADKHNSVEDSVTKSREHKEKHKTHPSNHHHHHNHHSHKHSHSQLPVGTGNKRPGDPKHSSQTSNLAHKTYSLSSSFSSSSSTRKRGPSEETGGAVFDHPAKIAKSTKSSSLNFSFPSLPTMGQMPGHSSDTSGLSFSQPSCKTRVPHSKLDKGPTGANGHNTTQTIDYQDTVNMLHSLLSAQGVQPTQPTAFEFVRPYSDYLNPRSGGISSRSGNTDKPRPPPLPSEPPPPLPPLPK
CDK4/D1, sequence (P11802 whole entry, species assumed): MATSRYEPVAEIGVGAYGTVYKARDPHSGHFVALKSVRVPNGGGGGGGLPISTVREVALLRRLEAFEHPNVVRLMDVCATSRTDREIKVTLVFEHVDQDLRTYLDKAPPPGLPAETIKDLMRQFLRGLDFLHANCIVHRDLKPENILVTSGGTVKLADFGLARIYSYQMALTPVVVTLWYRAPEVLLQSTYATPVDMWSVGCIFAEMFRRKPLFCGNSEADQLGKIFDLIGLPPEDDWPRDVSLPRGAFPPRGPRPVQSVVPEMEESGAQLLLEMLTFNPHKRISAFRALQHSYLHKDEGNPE
CDK4/D1, sequence (P24385 whole entry partner, species assumed): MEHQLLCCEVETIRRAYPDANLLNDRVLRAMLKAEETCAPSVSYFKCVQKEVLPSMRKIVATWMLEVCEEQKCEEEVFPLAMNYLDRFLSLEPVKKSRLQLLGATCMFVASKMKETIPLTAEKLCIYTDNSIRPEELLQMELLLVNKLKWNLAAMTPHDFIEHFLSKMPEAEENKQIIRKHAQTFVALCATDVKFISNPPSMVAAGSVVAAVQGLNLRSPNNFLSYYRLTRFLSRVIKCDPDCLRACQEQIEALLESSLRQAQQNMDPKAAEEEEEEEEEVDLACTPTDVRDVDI
Protocol for CDK4/D1: Inhibition of FLT3(WT), FLT3(ITD) and FLT3(D835Y) and CDKs were determined using ADP Glo Kinase assays (Promega Corporation, Madison, WI, USA). […] Similarly, kinase reaction for CDK4/D1 and CDK6/D3 was performed with reaction buffer (40 nM Tris base pH 7.5, 20 mM MgCl2, 0.4 mM DTT), 0.1 mg/ml BSA and RB-CTF substrate (retinoblastoma protein1 C-terminal fraction). For CDK9/CyclinT1, the kinase reaction was performed with the standard assay buffer and Kinase Dilution Buffer and RBER-IRStide substrate. Half-maximal inhibition (IC50) values were calculated using a 4-parameter logistic non-linear regression model with Graphpad prism (Version 6.0). Apparent inhibition constants (Ki) values were calculated from Km (ATP) and IC50 values for the respective kinases.
Protocol for FLT3(ITD): Inhibition of FLT3(WT), FLT3(ITD) and FLT3(D835Y) and CDKs were determined using ADP Glo Kinase assays (Promega Corporation, Madison, WI, USA). […] The kinase reactions are run for an optimised time period (FLT3-WT: 120 min, FLT3-ITD: 80 min, FLT3-D835Y: 100 min) at room temperature and then the reaction was stopped by adding 5 μL of ADP Glo reagent. […] Positive and negative controls were performed in 0.5% DMSO in the presence and absence of each FLT3 kinase, respectively. […] Half-maximal inhibition (IC50) values were calculated using a 4-parameter logistic non-linear regression model with Graphpad prism (Version 6.0). Apparent inhibition constants (Ki) values were calculated from Km (ATP) and IC50 values for the respective kinases.

For orientation: GI50 means the concentration giving 50% growth inhibition. As to `CC(=O)N1CCN(c2ccc(Nc3nccc(-c4cnc5ccc(-c6c[nH]c7ccccc67)cn45)n3)nc2)CC1` [Cmpd 41, 1-(4-(6-((4-(6-(1H-Indol-3-yl)imidazo[1,2-a]pyridin-3-yl)pyrimidin-2-yl)amino)pyridin-3-yl)piperazin-1-yl)ethan-1-one], the GI50 in the experiment on U937 is 1280 nM; with MV-4-11 it was 1 nM. Also, the remaining activity at 1 µM at CDK4/D1 was 54%; on CDK6/D3, 89%; at CDK9/CyclinT1 (compound at 1 μM (values marked *), read-out: residual enzymatic activity (%) at 1 μM*), 42%. The activity at CDK1B worked out at 98%; on CDK7HMAT1, 79%; on CDK2E1, 81%.

On to `CC(=O)N1CCN(c2ccc(Nc3nccc(-c4cnc5ccc(-c6c[nH]c7ncccc67)cn45)n3)nc2)CC1` [Cmpd 42, 1-(4-(6-((4-(6-(1H-pyrrolo[2,3-b]pyridin-3-yl)imidazo[1,2-a]pyridin-3-yl)pyrimidin-2-yl)amino)pyridin-3-yl)piperazin-1-yl)ethan-1-one], for which the GI50 in the experiment on U937 amounted to 1560 nM; in the experiment with MV-4-11, 5 nM. Further, the remaining activity at 1 µM was determined as 52% at CDK4/D1 and 64% on CDK6/D3. In addition, the activity at CDK1B was 95%; on CDK7HMAT1, 80%; at CDK2E1, 46%. For the same compound, at CDK9/CyclinT1, the Ki was 607 nM.

For `Cc1ccc(Nc2nccc(-c3cnc4ccccn34)n2)nc1` [Cmpd 55, 4-(Imidazo[1,2-a]pyridin-3-yl)-N-(5-methylpyridin-2-yl)pyrimidin-2-amine], the values for the GI50 with U937 and with MV-4-11 were 471 nM and 49 nM, respectively. The Ki at FLT3(ITD) was 44 nM.

Turning to `CCC(=O)N1CCN(c2ccc(Nc3nccc(-c4cnc5ccccn45)n3)nc2)CC1` [Cmpd 56, 1-(4-(6-((4-(Imidazo[1,2-a]pyridin-3-yl)pyrimidin-2-yl)amino)pyridin-3-yl)piperazin-1-yl)propan-1-one], the figures for the GI50 with U937 and with MV-4-11 were 339 nM and 22 nM, respectively. Moreover, the Ki at FLT3(ITD) is 16 nM.

Take `CC(=O)N1CCN(c2ccc(Nc3nccc(-c4cnc5ccc(-c6cc[nH]n6)cn45)n3)nc2)CC1` [Cmpd 57, 1-(4-(6-((4-(6-(1H-Pyrazol-3-yl)imidazo[1,2-a]pyridin-3-yl)pyrimidin-2-yl)amino)pyridin-3-yl)piperazin-1-yl)ethan-1-one]: the GI50 was 728 nM with U937 and 4 nM in the experiment with MV-4-11. Besides, the Ki at FLT3(ITD) was 6 nM.

As to `CC(=O)N1CCN(c2ccc(Nc3nccc(-c4cnc5ccc(-c6ccn(C)n6)cn45)n3)nc2)CC1` [Cmpd 58, 1-(4-(6-((4-(6-(1-Methyl-1H-pyrazol-3-yl)imidazo[1,2-a]pyridin-3-yl)pyrimidin-2-yl)amino)pyridin-3-yl)piperazin-1-yl)ethan-1-one], the GI50 in the experiment with U937 stood at 206 nM; in the experiment with MV-4-11 it was 9 nM. Also, at FLT3(ITD), the Ki is 49 nM.

Consider `CC(=O)N1CCN(c2ccc(Nc3nccc(-c4cnc5ccc(-c6cnn(C(F)F)c6)cn45)n3)nc2)CC1` [Cmpd 59], for which the figures for the GI50 in the experiment on U937 and with MV-4-11 were 462 nM and 8 nM, respectively. Moreover, the Ki at FLT3(ITD) is 18 nM.

With `CC(=O)N1CCN(c2ccc(Nc3nccc(-c4cnc5ccc(-c6cnn(C7CCN(C(=O)OC(C)(C)C)CC7)c6)cn45)n3)nc2)CC1` [Cmpd 60, Tert-butyl 4-(4-(3-(2-((5-(4-acetylpiperazin-1-yl)pyridin-2-yl)amino)pyrimidin-4-yl)imidazo[1,2-a]pyridin-6-yl)-1H-pyrazol-1-yl)piperidine-1-carboxylate], the GI50 in the experiment with U937 was found to be 243 nM; in the experiment on MV-4-11 it was 19 nM. For the same compound, the Ki on FLT3(ITD) is 84 nM.

Take `CC(=O)N1CCN(c2ccc(Nc3nccc(-c4cnc5ccc(-c6ccc(C)o6)cn45)n3)nc2)CC1` [Cmpd 61, 1-(4-(6-((4-(6-(5-Methylfuran-2-yl)imidazo[1,2-a]pyridin-3-yl)pyrimidin-2-yl)amino)pyridin-3-yl)piperazin-1-yl)ethan-1-one]: the GI50 in the experiment with U937 was 199 nM; in the experiment on MV-4-11, less than 0.1 nM. Also, the Ki at FLT3(ITD) is 4 nM.

As to `CN1CCN(c2ccc(Nc3nccc(-c4cnc5ccc(-c6cnn(C)c6)cn45)n3)nc2)CC1` [Cmpd 62, 4-(6-(1-Methyl-1H-pyrazol-4-yl)imidazo[1,2-a]pyridin-3-yl)-N-(5-(4-methylpiperazin-1-yl)pyridin-2-yl)pyrimidin-2-amine], the GI50 is 773 nM in the experiment on U937 and 6 nM with MV-4-11. At FLT3(ITD), the Ki is 29 nM.

Consider `CC(=O)N1CCN(c2ccc(Nc3nccc(-c4cnc5ccc(C6=CCN(C(=O)OC(C)(C)C)CC6)cn45)n3)nc2)CC1` [Cmpd 63, Tert-butyl 4-(3-(2-((5-(4-acetylpiperazin-1-yl)pyridin-2-yl)amino)pyrimidin-4-yl)imidazo[1,2-a]pyridin-6-yl)-3,6-dihydropyridine-1(2H)-carboxylate], for which the GI50 in the experiment on U937 was 436 nM; with MV-4-11 it was 35 nM. The Ki at FLT3(ITD) is 132 nM.

In the case of `CC(C)(C)OC(=O)N1CC=C(c2ccc(Nc3nccc(-c4cnc5ccccn45)n3)nc2)CC1` [Cmpd 64, Tert-butyl 6-((4-(imidazo[1,2-a]pyridin-3-yl)pyrimidin-2-vi)amino)-3′,6′-dihydro-[3,4′-bipyridine]-1′(2′H)-carboxylate], the GI50 is 367 nM in the experiment with U937 and 152 nM in the experiment with MV-4-11. The Ki on FLT3(ITD) is 308 nM.

For the compound `CN1CCN(c2ccc(Nc3nccc(-c4cnc5ccc(-c6cccnc6)cn45)n3)nc2)CC1` [Cmpd 65, N-(5-(4-Methylpiperazin-1-yl)pyridin-2-yl)-4-(6-(pyridin-3-yl)imidazo[1,2-a]pyridin-3-yl)pyrimidin-2-amine], the GI50 in the experiment with U937 was 382 nM; in the experiment with MV-4-11 it was 32 nM. The Ki at FLT3(ITD) was 30 nM.

For `CN1CCN(c2ccc(Nc3nccc(-c4cnc5ccc(-c6cncnc6)cn45)n3)nc2)CC1` [Cmpd 66, N-(5-(4-Methylpiperazin-1-yl)pyridin-2-yl)-4-(6-(pyrimidin-5-yl)imidazo[1,2-a]pyridin-3-yl)pyrimidin-2-amine], the GI50 in the experiment with U937 was found to be 1090 nM; in the experiment on MV-4-11 it was 174 nM. The same compound yielded an activity at CDK2E1 of 80%. Moreover, the Ki at CDK9/CyclinT1 is 345 nM; on FLT3(ITD), 116 nM.

Take `CCN1CCN(Cc2ccc(Nc3ncc(F)c(-c4cnc5ccc(-c6ccccc6)cn45)n3)nc2)CC1` [Cmpd 68, N-(5-((4-Ethylpiperazin-1-yl)methyl)pyridin-2-yl)-5-fluoro-4-(6-phenylimidazo[1,2-a]pyridin-3-yl)pyrimidin-2-amine]: the GI50 in the experiment on U937 was 600 nM; in the experiment on MV-4-11, 117 nM. Moreover, the Ki on FLT3(ITD) is 70 nM.

For `CN(C)C1CCN(c2ccc(Nc3ncc(F)c(-c4cnc5ccc(-c6ccccc6)cn45)n3)nc2)CC1` [Cmpd 69, N-(5-(4-(Dimethylamino)piperidin-1-yl)pyridin-2-yl)-5-fluoro-4-(6-phenylimidazo[1,2-a]pyridin-3-yl)pyrimidin-2-amine], the GI50 in the experiment on U937 was 946 nM; in the experiment on MV-4-11, 18 nM. Moreover, the Ki at FLT3(ITD) was 16 nM.
